# Patent EP0670711B1, “ANTIFUNGAL MOUTHCARE COMPOSITIONS” (AMBI Inc., priority 1992, dated 1994)
# Read-outs that look alike come from different tables or passages of the source.
# Key:
# Assay type in all cases: cell-based
# Candida organisms [1] = assay: NIC assay, summary for Candida; details: for MIC: read-out: levels for Candida inhibition; for inhibitory activity against candida species: result in words, NIC assay
# Act. israelii [2] = assay: nominal inhibitory concentration (NIC) assay; details: Actinomyces israelii, read-out: NIC
# Strep mitior [3] = assay: nominal inhibitory concentration (NIC) assay; details: read-out: NIC
# C tropicalis NCTC 3114 = assay: zone diffusion assay; details: solution with 500ppm of each agent
# Description: (§1) The assay was repeated for each of cetyl pyridinium chloride, chlorhexidine or triclosan individually. […]
# W recta NCTC 11489 = assay: zone diffusion assay; details: solution with 500ppm of each agent
# Description: as §1
# C kefyr NCTC 3106 = assay: zone diffusion assay; details: solution with 500ppm of each agent
# Description: as §1
# S sanguis NCTC 10904 = assay: zone diffusion assay; details: solution with 500ppm of each agent
# Description: as §1
# F nucleatum NCTC 10562 = assay: zone diffusion assay; details: solution with 500ppm of each agent
# Description: as §1
# A actinomyces NCTC 9709 = assay: zone diffusion assay; details: solution with 500ppm of each agent
# Description: as §1
# C albicans NCTC 3089 = assay: zone diffusion assay; details: solution with 500ppm of each agent
# Description: as §1
# S mutans NCTC 11061 = assay: zone diffusion assay; details: solution with 500ppm of each agent
# Description: as §1
# Strep. salivarius [4] = assay: nominal inhibitory concentration (NIC) assay; details: Streptococcus salivarius, read-out: NIC
# Bact. intermedius [5] = assay: nominal inhibitory concentration (NIC) assay; details: Prevotella intermedia, read-out: NIC
# Strep. agalactiæ [6] = assay: nominal inhibitory concentration (NIC) assay; details: read-out: NIC
# Bact. ureolyticus [7] = assay: nominal inhibitory concentration (NIC) assay; details: read-out: NIC
# Strep. mitis [8] = assay: nominal inhibitory concentration (NIC) assay; details: Streptococcus mitis, read-out: NIC
# Candida albicans [9] = assay: nominal inhibitory concentration (NIC) assay; details: read-out: NIC
# Strep.mutans [10] = assay: nominal inhibitory concentration (NIC) assay; details: Streptococcus mutans, read-out: NIC
# Candida kefyr [11] = assay: nominal inhibitory concentration (NIC) assay; details: Kluyveromyces marxianus, read-out: NIC
# Strep. sanguis [12] = assay: nominal inhibitory concentration (NIC) assay; details: read-out: NIC
# Lacto odontolyticus [13] = assay: nominal inhibitory concentration (NIC) assay; details: read-out: NIC
# G.vaginalis [14] = assay: nominal inhibitory concentration (NIC) assay; details: Gardnerella vaginalis, read-out: NIC
# Fuso. nucleatum [15] = assay: nominal inhibitory concentration (NIC) assay; details: Fusobacterium nucleatum, read-out: NIC
# Strep.pyogenes [16] = assay: nominal inhibitory concentration (NIC) assay; details: Streptococcus pyogenes, read-out: NIC
# Act. naeslundii [17] = assay: nominal inhibitory concentration (NIC) assay; details: Actinomyces naeslundii, read-out: NIC
# Act. odontolyticus [18] = assay: nominal inhibitory concentration (NIC) assay; details: Schaalia odontolytica, read-out: NIC
# Peptostrepto. micros [19] = assay: nominal inhibitory concentration (NIC) assay; details: read-out: NIC
# Act. actinomycetem [20] = assay: nominal inhibitory concentration (NIC) assay; details: read-out: NIC
# Porph. gingivalis [21] = assay: nominal inhibitory concentration (NIC) assay; details: Porphyromonas gingivalis, read-out: NIC
# Staph.aureus [22] = assay: nominal inhibitory concentration (NIC) assay; details: Staphylococcus aureus, read-out: NIC
# Strep. milleri [23] = assay: nominal inhibitory concentration (NIC) assay; details: read-out: NIC
# [24] = test system: all the organisms shown in the Example 25 Table 1; assay: NIC assay, summary over all organisms of Table 1; details: read-out: levels needed to inhibit all the desired oral microrganisms
# Candida tropicalis [25] = assay: nominal inhibitory concentration (NIC) assay; details: read-out: NIC
# Act. odontolyticus [26] = assay: nominal inhibitory concentration (NIC) assay
# Act. actinomycetem [27] = assay: nominal inhibitory concentration (NIC) assay
# Strep. milleri [28] = assay: nominal inhibitory concentration (NIC) assay
# Act. israelii [29] = assay: nominal inhibitory concentration (NIC) assay
# Peptostrepto. micros [30] = assay: nominal inhibitory concentration (NIC) assay
# Lacto odontolyticus [31] = assay: nominal inhibitory concentration (NIC) assay
# Strep.pyogenes [32] = assay: nominal inhibitory concentration (NIC) assay
# Candida tropicalis [33] = assay: nominal inhibitory concentration (NIC) assay
# Porph. gingivalis [34] = assay: nominal inhibitory concentration (NIC) assay
# Strep.mutans [35] = assay: nominal inhibitory concentration (NIC) assay
# Bact. intermedius [36] = assay: nominal inhibitory concentration (NIC) assay
# Strep. sanguis [37] = assay: nominal inhibitory concentration (NIC) assay
# Candida albicans [38] = assay: nominal inhibitory concentration (NIC) assay
# G.vaginalis [39] = assay: nominal inhibitory concentration (NIC) assay
# Strep mitior [40] = assay: nominal inhibitory concentration (NIC) assay
# Bact. ureolyticus [41] = assay: nominal inhibitory concentration (NIC) assay
# Strep. agalactiæ [42] = assay: nominal inhibitory concentration (NIC) assay
# Strep. mitis [43] = assay: nominal inhibitory concentration (NIC) assay
# Fuso. nucleatum [44] = assay: nominal inhibitory concentration (NIC) assay
# [45] = test system: all the organisms shown in the Example 25 Table 1; assay: NIC assay, summary over all organisms of Table 1; details: all organisms of Example 25 Table 1 (for CPC: kills all the organisms)
# Description: (§2) Thus, lower levels of such antimicrobial agent may be used in the present invention if it intended that such antimicrobial agent is being included principally to provide anti-Candida activity, to supplement the gap in the spectrum of activity of nisin.
# Act. naeslundii [46] = assay: nominal inhibitory concentration (NIC) assay
# Candida kefyr [47] = assay: nominal inhibitory concentration (NIC) assay
# Candida organisms [48] = assay: NIC assay, summary for Candida; details: result in words
# Description: as §2
# Strep. salivarius [49] = assay: nominal inhibitory concentration (NIC) assay
# Staph.aureus [50] = assay: nominal inhibitory concentration (NIC) assay
molecule,measurement,setting,value
"[H]/N=C(\N/C(=N/[H])NCCCCCCNC(=N)NC(=N)Nc1ccc(Cl)cc1)Nc1ccc(Cl)cc1 [CHX, chlorhexidine]",MIC,Candida organisms [1]; Candida organisms,1.71 µg/mL
same,inhibitory activity against candida species,Candida organisms [1],effective
same,MIC,Act. israelii [2]; Act. israelii,4.11 µg/mL
same,MIC,Strep mitior [3]; Strep mitior,4.55 µg/mL
same,mean zones,C tropicalis NCTC 3114,17.36 mm
same,mean zones,W recta NCTC 11489,32.35 mm
same,mean zones,C kefyr NCTC 3106,17.03 mm
same,mean zones,S sanguis NCTC 10904,22.76 mm
same,mean zones,F nucleatum NCTC 10562,36.97 mm
same,mean zones,A actinomyces NCTC 9709,35.68 mm
same,mean zones,C albicans NCTC 3089,14.93 mm
same,mean zones,S mutans NCTC 11061,29.68 mm
same,MIC,Strep. salivarius [4]; Strep. salivarius,1.44 µg/mL
same,MIC,Bact. intermedius [5]; Bact. intermedius,2.49 µg/mL
same,MIC,Strep. agalactiæ [6]; Strep. agalactiæ,0.41 µg/mL
same,MIC,Bact. ureolyticus [7]; Bact. ureolyticus,0.69 µg/mL
same,MIC,Strep. mitis [8]; Strep. mitis,1.5 µg/mL
same,MIC,Candida albicans [9],1.71 µg/mL
same,MIC,Strep.mutans [10]; Strep.mutans,3.94 µg/mL
same,MIC,Candida kefyr [11]; Candida kefyr,0.42 µg/mL
same,MIC,Strep. sanguis [12]; Strep. sanguis,0.86 µg/mL
same,MIC,Lacto odontolyticus [13]; Lacto odontolyticus,1.88 µg/mL
same,MIC,G.vaginalis [14]; G.vaginalis,1.3 µg/mL
same,MIC,Fuso. nucleatum [15]; Fuso. nucleatum,0.64 µg/mL
same,MIC,Strep.pyogenes [16]; Strep.pyogenes,0.16 µg/mL
same,MIC,Act. naeslundii [17]; Act. naeslundii,2.01 µg/mL
same,MIC,Act. odontolyticus [18]; Act. odontolyticus,3.37 µg/mL
same,MIC,Peptostrepto. micros [19]; Peptostrepto. micros,8.46 µg/mL
same,MIC,Act. actinomycetem [20]; Act. actinomycetem,0.53 µg/mL
same,MIC,Porph. gingivalis [21]; Porph. gingivalis,2.36 µg/mL
same,MIC,Staph.aureus [22]; Staph.aureus,0.54 µg/mL
same,MIC,Strep. milleri [23]; Strep. milleri,1.58 µg/mL
same,MIC,[24],~8.46 µg/mL
same,MIC,Candida tropicalis [25],0.98 µg/mL
"CCCCCCCCCCCCCCCC[n+]1ccccc1 [CPC, cetyl pyridinium chloride]",MIC,Strep mitior [3],1.22 µg/mL
same,mean zones,C tropicalis NCTC 3114,10.39 mm
same,mean zones,W recta NCTC 11489,17.15 mm
same,mean zones,C kefyr NCTC 3106,10.43 mm
same,mean zones,S sanguis NCTC 10904,14.44 mm
same,mean zones,F nucleatum NCTC 10562,18.99 mm
same,mean zones,A actinomyces NCTC 9709,19.41 mm
same,mean zones,C albicans NCTC 3089,9.79 mm
same,mean zones,S mutans NCTC 11061,17.05 mm
same,MIC,Strep. salivarius [4],2.36 µg/mL
same,MIC,Bact. intermedius [5],4.68 µg/mL
same,MIC,Strep. agalactiæ [6],0.78 µg/mL
same,MIC,Bact. ureolyticus [7],0.56 µg/mL
same,MIC,Strep. mitis [8],2.23 µg/mL
same,MIC,Strep.mutans [10],3.1 µg/mL
same,MIC,Candida kefyr [11],0.61 µg/mL
same,MIC,Strep. sanguis [12],2.12 µg/mL
same,MIC,Lacto odontolyticus [13],0.83 µg/mL
same,MIC,G.vaginalis [14],0.3 µg/mL
same,MIC,Fuso. nucleatum [15],0.82 µg/mL
same,MIC,Strep.pyogenes [16],0.78 µg/mL
same,MIC,Act. naeslundii [17],4.61 µg/mL
same,MIC,Act. odontolyticus [18],1.23 µg/mL
same,MIC,Peptostrepto. micros [19],4.96 µg/mL
same,MIC,Act. actinomycetem [20],1.02 µg/mL
same,MIC,Porph. gingivalis [21],0.94 µg/mL
same,MIC,Staph.aureus [22],0.66 µg/mL
same,MIC,Strep. milleri [23],4.58 µg/mL
same,MIC,Candida tropicalis [25],0.48 µg/mL
"Oc1cc(Cl)ccc1Oc1ccc(Cl)cc1Cl [TCN, triclosan]",MIC,Candida organisms [1]; Candida,~1 µg/mL
same,inhibitory activity against candida species,Candida organisms [1],effective
same,MIC,Act. israelii [2],3.19 µg/mL
same,MIC,Strep mitior [3],4.23 µg/mL
same,mean zones,C tropicalis NCTC 3114,13.66 mm
same,mean zones,W recta NCTC 11489,37.20 mm
same,mean zones,C kefyr NCTC 3106,21.99 mm
same,mean zones,S sanguis NCTC 10904,28.97 mm
same,mean zones,F nucleatum NCTC 10562,33.98 mm
same,mean zones,A actinomyces NCTC 9709,35.92 mm
same,mean zones,C albicans NCTC 3089,16.99 mm
same,mean zones,S mutans NCTC 11061,32.82 mm
same,MIC,Strep. salivarius [4],4.05 µg/mL
same,MIC,Bact. intermedius [5],3.72 µg/mL
same,MIC,Strep. agalactiæ [6],4.96 µg/mL
same,MIC,Bact. ureolyticus [7],7.65 µg/mL
same,MIC,Strep. mitis [8],3.94 µg/mL
same,MIC,Candida albicans [9],1 µg/mL
same,MIC,Strep.mutans [10],1.11 µg/mL
same,MIC,Candida kefyr [11],0.46 µg/mL
same,MIC,Strep. sanguis [12],0.88 µg/mL
same,MIC,Lacto odontolyticus [13],7.49 µg/mL
same,MIC,G.vaginalis [14],0.41 µg/mL
same,MIC,Fuso. nucleatum [15],1.6 µg/mL
same,MIC,Strep.pyogenes [16],4.35 µg/mL
same,MIC,Act. naeslundii [17],1.98 µg/mL
same,MIC,Act. odontolyticus [18],3.02 µg/mL
same,MIC,Peptostrepto. micros [19],6.76 µg/mL
same,MIC,Act. actinomycetem [20],1.69 µg/mL
same,MIC,Porph. gingivalis [21],4 µg/mL
same,MIC,Staph.aureus [22],0.09 µg/mL
same,MIC,Strep. milleri [23],1.08 µg/mL
same,MIC,[24],~7.65 µg/mL
same,MIC,Candida tropicalis [25],0.35 µg/mL
nisin [Ambicin N],NIC,Act. odontolyticus [26],0.12 ppm
same,NIC,Act. actinomycetem [27],0.02 ppm
same,mean zones,C tropicalis NCTC 3114,0 mm
same,mean zones,W recta NCTC 11489,28.19 mm
same,mean zones,C kefyr NCTC 3106,0 mm
same,mean zones,S sanguis NCTC 10904,15.38 mm
same,mean zones,F nucleatum NCTC 10562,29.38 mm
same,mean zones,A actinomyces NCTC 9709,23.04 mm
same,mean zones,C albicans NCTC 3089,0 mm
same,mean zones,S mutans NCTC 11061,18.36 mm
same,NIC,Strep. milleri [28],0.14 ppm
same,NIC,Act. israelii [29],0.53 ppm
same,NIC,Peptostrepto. micros [30],>1.28 ppm
same,NIC,Lacto odontolyticus [31],0.02 ppm
same,NIC,Strep.pyogenes [32],0.009 ppm
same,NIC,Candida tropicalis [33],>128 ppm
same,NIC,Porph. gingivalis [34],>1.28 ppm
same,NIC,Strep.mutans [35],0.43 ppm
same,NIC,Bact. intermedius [36],0.91 ppm
same,NIC,Strep. sanguis [37],0.23 ppm
same,NIC,Candida albicans [38],>128 ppm
same,NIC,G.vaginalis [39],0.22 ppm
same,NIC,Strep mitior [40],0.05 ppm
same,NIC,Bact. ureolyticus [41],0.035 ppm
same,NIC,Strep. agalactiæ [42],0.22 ppm
same,NIC,Strep. mitis [43],0.33 ppm
same,NIC,Fuso. nucleatum [44],0.048 ppm
same,levels needed to inhibit all the desired oral microrganisms,[45],about 0.99 ppm
same,NIC,Act. naeslundii [46],>12.8 ppm
same,NIC,Candida kefyr [47],>128 ppm
same,inhibitory activity against candida species,Candida organisms [48],lacks effective inhibitory activity
same,NIC,Strep. salivarius [49],0.18 ppm
same,NIC,Staph.aureus [50],0.13 ppm
